Test results: BindingDB's records for doi:10.1124/jpet.104.068098 (University of Kentucky, 2004)

How the values were obtained:
[1] = target: Sodium-dependent noradrenaline transporter (Homo sapiens, UniProt P23975)
[2] = target: Sodium-dependent serotonin transporter (Homo sapiens, UniProt P31645)
[3] = target: Sodium-dependent dopamine transporter (Homo sapiens, UniProt Q01959)
Sodium-dependent dopamine transporter, sequence (Q01959 whole entry): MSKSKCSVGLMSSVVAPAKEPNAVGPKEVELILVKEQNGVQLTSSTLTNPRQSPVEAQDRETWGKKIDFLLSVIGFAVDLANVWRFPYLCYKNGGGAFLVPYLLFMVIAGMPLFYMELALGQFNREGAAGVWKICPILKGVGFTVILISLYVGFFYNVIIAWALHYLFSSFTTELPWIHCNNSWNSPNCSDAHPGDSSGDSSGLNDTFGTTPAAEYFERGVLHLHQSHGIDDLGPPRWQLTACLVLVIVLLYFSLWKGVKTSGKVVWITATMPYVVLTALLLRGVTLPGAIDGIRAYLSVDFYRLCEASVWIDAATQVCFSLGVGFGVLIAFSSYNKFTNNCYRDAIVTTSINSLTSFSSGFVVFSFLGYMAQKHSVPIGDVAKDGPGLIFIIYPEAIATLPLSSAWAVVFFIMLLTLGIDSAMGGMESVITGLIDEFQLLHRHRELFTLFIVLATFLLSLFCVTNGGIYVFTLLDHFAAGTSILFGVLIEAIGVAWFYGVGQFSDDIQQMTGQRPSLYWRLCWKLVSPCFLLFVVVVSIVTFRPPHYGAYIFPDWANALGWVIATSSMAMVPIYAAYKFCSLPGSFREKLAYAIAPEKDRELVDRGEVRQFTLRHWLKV

Sodium-dependent serotonin transporter, sequence (P31645 whole entry): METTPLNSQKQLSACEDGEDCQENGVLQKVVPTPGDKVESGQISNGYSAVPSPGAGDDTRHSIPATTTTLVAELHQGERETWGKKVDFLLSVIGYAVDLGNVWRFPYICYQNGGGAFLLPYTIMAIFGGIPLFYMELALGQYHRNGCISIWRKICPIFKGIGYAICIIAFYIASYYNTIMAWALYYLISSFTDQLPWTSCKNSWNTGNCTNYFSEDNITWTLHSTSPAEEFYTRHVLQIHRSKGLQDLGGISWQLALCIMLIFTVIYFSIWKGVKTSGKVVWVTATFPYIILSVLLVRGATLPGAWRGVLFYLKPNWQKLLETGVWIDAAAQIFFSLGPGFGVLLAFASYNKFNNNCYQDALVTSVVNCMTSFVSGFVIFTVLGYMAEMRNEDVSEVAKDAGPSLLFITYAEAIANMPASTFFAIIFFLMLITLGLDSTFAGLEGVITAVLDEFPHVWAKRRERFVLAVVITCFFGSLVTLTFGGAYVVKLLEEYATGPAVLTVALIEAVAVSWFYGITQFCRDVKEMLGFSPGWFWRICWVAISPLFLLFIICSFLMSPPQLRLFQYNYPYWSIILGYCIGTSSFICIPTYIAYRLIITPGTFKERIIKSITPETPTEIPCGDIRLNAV
Sodium-dependent noradrenaline transporter, sequence (P23975 whole entry): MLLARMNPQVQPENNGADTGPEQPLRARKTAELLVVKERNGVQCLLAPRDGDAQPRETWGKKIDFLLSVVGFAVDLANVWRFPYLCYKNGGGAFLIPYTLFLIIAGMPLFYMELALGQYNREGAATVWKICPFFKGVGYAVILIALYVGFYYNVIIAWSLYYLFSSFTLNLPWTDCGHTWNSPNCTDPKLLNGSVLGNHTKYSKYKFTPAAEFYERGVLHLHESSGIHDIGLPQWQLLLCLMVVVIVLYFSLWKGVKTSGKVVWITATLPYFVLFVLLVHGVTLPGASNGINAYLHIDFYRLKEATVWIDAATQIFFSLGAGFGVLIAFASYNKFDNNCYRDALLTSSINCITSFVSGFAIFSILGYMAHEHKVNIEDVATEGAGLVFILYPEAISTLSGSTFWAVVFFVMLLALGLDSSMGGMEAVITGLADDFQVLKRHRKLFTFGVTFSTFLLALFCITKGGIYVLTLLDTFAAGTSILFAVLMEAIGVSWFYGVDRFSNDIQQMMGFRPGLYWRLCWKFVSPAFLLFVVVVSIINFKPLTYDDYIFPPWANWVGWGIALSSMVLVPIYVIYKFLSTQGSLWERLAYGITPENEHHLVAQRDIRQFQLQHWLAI

| Compound | Ki [1] | Ki [2] | Ki [3] |
| --- | --- | --- | --- |
| CN1[C@H](/C=C/c2ccccc2)CCC[C@@H]1/C=C/c1ccccc1 | 0.277 µM | 1.89 µM | 0.043 µM |
| CN1[C@@H](CCc2ccccc2)CCC[C@H]1CCc1ccccc1 | 1.8 µM | 0.53 µM | 0.097 µM |
| CN1[C@@H](C[C@@H](O)c2ccccc2)CCC[C@H]1CC(=O)c1ccccc1 [Lobeline] | 1.87 µM | > 10 µM | 5.4 µM |
